“Also recorded” adds a separate entry of the source.
Tests used:
Format in all cases: cell-based, human
[1] = tested on: sorted NKX2-1GFP+ epithelial lung progenitors; experiment: Purified NKX2-1GFP+ lung progenitors replated in 3D culture with or without CHIR, day 14 to 20
Description: Cells grown in two-dimensional culture were harvested by incubation with 0.05% Trypsin-EDTA for 10-20 minutes at 37° C. Cells cultured in three-dimensional growth factor reduced Matrigel were harvested by incubation with 2 mg/mL dispase (ThermoFisher) for 30-60 minutes at 37° C. then subsequent incubation with 0.05% trypsin at 37° C. until a single cell suspension was achieved. Cells were washed with media containing 10% fetal bovine serum (FBS, ThermoFisher.) Harvested cells were spun at 300 RCF for 5 minutes at 4° C. and resuspended in buffer containing Hank's Balanced Salt Solution (ThermoFisher), 2% FBS and 10 μM Y-27632 (Tocris) and stained with propidium iodide (ThermoFisher) or calcein blue AM (ThermoFisher) for dead cell exclusion during flow cytometry. Live cells were sorted on a high speed cell sorter (MoFlo Legacy, Beckman Coulter, Pasadena, Calif.) at the Boston University Medical Center Flow Cytometry Core Facility based on NKX2-1GFP expression or by staining for CD47 (Biolegend) and CD26 (Biolegend) and gating for CD47^hi/CD26^−. […]
The final protocol for generating rapidly proximalized NKX2-1+ lung epithelium was replating unsorted or sorted cells for 4 days of culture post-specification in cSFDM containing 10 ng/mL FGF10. […] Cells were analyzed for expression of proximal markers 4 days post-replating in FGF10 media.
The inventors next assessed whether the effect of CHIR manipulation on proximodistal lung patterning was intrinsic to lung epithelial cells rather than due to secondary or bystander effects. […] By day 20, the sorted cells formed small spheres coexpressing NKX2-1 and EPCAM (FIG. 3B-3C). >90% of all outgrowth cells in either culture conditioned maintained NKX2-1^GFP (+CHIR: 98.2±0.5%−CHIR: 93.4±2.3%) (FIG. 3D-3E) and cells in each condition formed organoids with no measured statistical difference in efficiency.

[2] = tested on: iPSC-derived anterior foregut endoderm cells; experiment: Lung specification from anterior foregut endoderm with or without CHIR (NKX2-1GFP flow cytometry, 7XTCF-mCherry reporter)
[3] = tested on: iPSC-derived NKX2-1+ lung progenitors; experiment: Immunofluorescence and intracellular flow cytometry for NKX2-1, SOX2, SOX9, P63 coexpression at day 19
Description: Cells were harvested for intracellular flow cytometry and fixed for 10-20 minutes at 37° C. in fresh 1.6% paraformeldehyde. Cells were permeabilized with Cell Permeabilization Buffer (eBioscience, San Diego, Calif.) containing 4% normal donkey serum (Sigma) in PBS and stained with primary antibody for NKX2-1 (Abcam # ab76013, rabbit EP1584Y, 1:100) or a conjugated antibody for SOX2 (BD #561506, PerCP-Cy5.5 conjugated, mouse O30-678, 1:100). Anti-NKX2-1 antibody was detected by secondary antibody stainings with either Cy3, Alexa Fluor 488, or Alexa Fluor 647 fluorophore-conjugated secondary antibodies (AffiniPure Donkey Anti-Rabbit IgG (H+L); 1:500; Jackson ImmunoResearch, West Grove, Pa.). Stained cells were analyzed on a FacsCalibur instrument (BD Biosciences, San Jose, Calif.) and data was analyzed with FlowJo software (Ashland, Oreg.).
Cells for immunofluorescence microscopy were cultured on glass coverslips (ThermoFisher). Cultured cells were fixed with fresh 4% paraformeldehyde and stained as described previously(Kurmann et al., 2015). Briefly, cells were permeabilized with 0.3% Triton-X (Sigma) for 10 minutes at room temperature then blocked with 4% normal donkey serum (Sigma) for 30 minutes at room temperature. Cells were incubated with primary antibodies (detailed in Key Resources Table 3) overnight at 4° C., washed, and incubated with secondary antibodies for 30-60 minutes at room temperature. All secondary antibodies were conjugated to Alexa Fluor 488, Cy3, or Alexa Fluor 647 (Jackson Immunoresearch, 1:500). After antibody staining, nuclei were stained with Hoescht dye (ThermoFisher, 1:500). Coverslips with cells were mounted on glass slides using Prolong Diamond Anti-Fade Mounting Reagent (ThermoFisher) and imaged on a Nikon (Tokyo, Japan) deconvolution microscope.
Quantification of nuclear colocalization was performed using Nikon NIS Elements software using the Object Count function. 3-5 areas from each slide were analyzed for each replicate. The total image area where NKX2-1 and SOX2 or P63 overlapped was divided by the area containing only the NKX2-1 stain.

[4] = withdrawal of CHIR, re-sorted NKX2-1GFP+ cells at day 20

Cc1c[nH]c(-c2cnc(NCCNc3ccc(C#N)cn3)nc2-c2ccc(Cl)cc2Cl)n1 [CHIR, CHIR99021]
outgrowth cells maintaining NKX2-1GFP on day 20 ([1]; +CHIR day 14-20, 3D culture of sorted cells, flow cytometry, −CHIR: 93.4±2.3%): 98.2±0.5%
expression of distal lung genes SOX9 and ETV5 [1, 4]: downregulation
expression of proximal lung genes SOX2, SCGB3A2, TP63 [1, 4]: upregulation
rescue of NKX2-1GFP expression by later addition ([2]; cells differentiated without CHIR to day 15): could not be rescued
NKX2-1GFP expression during lung specification ([2]; presence of CHIR vs without, as early as 48 h after initiation of specification, maintained until at least day 15): significantly higher levels
7TC (7XTCF-mCherry) reporter expression ([2]; specification media with CHIR vs vehicle alone, normalized to Ef1aL-mCherry): rapid upregulation
cells co-expressing NKX2-1 and P63 ([3]; CHIR withdrawal day 15-19 (FGF10 alone) vs CHIR, immunofluorescence): increased frequencies; also recorded: significantly increased coexpression
percentage of cells coexpressing NKX2-1 and SOX2 ([3]; CHIR withdrawal day 15-19 vs CHIR): significantly higher percentage; also recorded: small but significant increase
NKX2-1+ population expressing SOX2 ([3]; CHIR-treated day 15-19, intracellular flow cytometry, without CHIR 68.0±4.1%): 54.9±5.5%
SOX2+ cells among NKX2-1+ cells ([3]; day 19, with CHIR (also without CHIR)): > 50%
NKX2-1+ cells that were SOX9+ ([3]; sustained CHIR day 15-19, triple immunostaining, 4 days after withdrawal of CHIR <40%): > 90%
